Measured values published in patent US20230331673A1, “COMPOSITION OF COMPOUNDS THAT MODULATE CELL METABOLISM AND METHODS OF USE” (CRESCENTA BIOSCIENCES, priority 2020, published 2023).

System: differentiated 3T3-L1 mouse adipocyte cells
Assay: Adipocyte glucose consumption in differentiated 3T3-L1 mouse adipocyte cells (loss of glucose from medium, colorimetric)
Format: cell-based
Conditions: compound 10 μM, 22 to 24 hours, differentiated 3T3-L1 adipocytes, compound/DMSO, read-out: Glucose consumption (fold change) Mean
Description: Activity of compounds on adipocyte glucose consumption was tested in differentiated 3T3-L1 mouse adipocyte cells. 3T3-L1 preadipocytes (ATCC) were routinely cultured in a growth medium composed of DMEM high-glucose (Sigma), 10% FBS (Gibco), 10 U/ml penicillin and 10 μg/ml streptomycin (P/S; Gibco). To induce adipogenic differentiation, a confluent layer of 3T3-L1 cells were incubated with the growth medium containing 2 μM rosiglitazone, 1 μM dexamethasone, 500 μM IBMX, and 1 μg/ml insulin (Sigma). Forty-eight (48) hours later (on day 2) and on days 4 and 6, medium of the cells was replaced with fresh medium containing 1 μg/ml insulin. On days 8 and 10, the medium was refreshed with regular growth medium and addition of insulin was omitted. On day 11 or 12, medium of the cells were replaced with fresh medium containing either the indicated compounds (10 μM) or the vehicle in which the compounds were dissolved (DMSO). The final concentration of DMSO was 0.1% (v/v). Growth medium containing 0.1% DMSO was incubated in culture wells containing no cells and used as control. Twenty-two to 24 hours later, medium was harvested and subjected to centrifugation at 10,000 g for 5 min. Glucose concentration in the supernatants was determined using a colorimetric assay (Glucose Assay Kit I, Eton Biosciences). Glucose consumption in compound and vehicle treated cells was measured as loss of glucose from the culture medium and represented as mean fold change (compound/DMSO) t standard deviation (SD).

Row | Structure (SMILES) | fold induction at 10 µM
1 | CCCCCCC1CCCc2c(n(Cc3cccc(C#N)n3)c3c(C(=O)O)cccc23)C1 (stereo not drawn) [5-[(6-cyanopyridin-2-yl)methyl]-7-hexyl-5H,6H,7H,8H,9H,10H-cyclohepta[b]indole-4-carboxylic acid] | 1.28
2 | CCCCCCC1CCCc2c(n(Cc3cccc(C(N)=O)n3)c3c(C(=O)O)cccc23)C1 (stereo not drawn) [5-[(6-carbamoylpyridin-2-yl)methyl]-7-hexyl-5H,6H,7H,8H,9H,10H-cyclohepta[b]indole-4-carboxylic acid] | 1.23
3 | CCCCCCC1CCCc2c(n(Cc3cccc(C(=O)O)c3)c3c(C(=O)O)cccc23)C1 (stereo not drawn) [5-[(3-carboxyphenyl)methyl]-7-hexyl-5H,6H,7H,8H,9H,10H-cyclohepta[b]indole-4-carboxylic acid] | 1.15
4 | CCCCC1CCCc2c(n(Cc3cccc(F)c3)c3c(C(=O)O)cccc23)C1 (stereo not drawn) [7-butyl-5-[(3-fluorophenyl)methyl]-5H,6H,7H,8H,9H,10H-cyclohepta[b]indole-4-carboxylic acid] | 1.12
5 | CCC1CCCc2c1n(Cc1cccc(C(N)=O)c1)c1c(C(=O)O)cccc21 (stereo not drawn) [9-[(3-carbamoylphenyl)methyl]-1-ethyl-2,3,4,9-tetrahydro-1H-carbazole-8-carboxylic acid] | 0.94
6 | CCCCCC1CCCc2c(n(Cc3cccc(C#N)c3)c3c(C(=O)O)cccc23)C1 (stereo not drawn) [5-[(3-cyanophenyl)methyl]-7-pentyl-5H,6H,7H,8H,9H,10H-cyclohepta[b]indole-4-carboxylic acid] | 1.35
7 | CCCC1CCCCc2c1c1cccc(C(=O)O)c1n2Cc1cccc(C#N)c1 (stereo not drawn) [5-[(3-cyanophenyl)methyl]-10-propyl-5H,6H,7H,8H,9H,10H-cyclohepta[b]indole-4-carboxylic acid] | 1.18
8 | CCCCC1CCCc2c(n(Cc3ccc(C)cc3)c3c(C(=O)O)cccc23)C1 (stereo not drawn) [7-butyl-5-[(4-methylphenyl)methyl]-5H,6H,7H,8H,9H,10H-cyclohepta[b]indole-4-carboxylic acid] | 1.27
9 | CCCCC1CCCc2c(n(Cc3cccc(C(N)=O)c3)c3c(C(=O)NCCO)cccc23)C1 (stereo not drawn) [7-butyl-5-[(3-carbamoylphenyl)methyl]-N-(2-hydroxyethyl)-5H,6H,7H,8H,9H,10H-cyclohepta[b]indole-4-carboxamide] | 0.98
10 | CCCCC1CCCc2c1n(Cc1cccc(C#N)c1)c1c(C(=O)O)cccc21 (stereo not drawn) [1-butyl-9-[(3-cyanophenyl)methyl]-2,3,4,9-tetrahydro-1H-carbazole-8-carboxylic acid] | 1.14
11 | CCCCCCC1CCCc2c(n(Cc3ccccc3C)c3c(C(=O)O)cccc23)C1 (stereo not drawn) [7-hexyl-5-[(2-methylphenyl)methyl]-5H,6H,7H,8H,9H,10H-cyclohepta[b]indole-4-carboxylic acid] | 1
12 | CCC1CCCCc2c1c1cccc(C(=O)O)c1n2Cc1cccc(C#N)c1 (stereo not drawn) [5-[(3-cyanophenyl)methyl]-10-ethyl-5H,6H,7H,8H,9H,10H-cyclohepta[b]indole-4-carboxylic acid] | 1.15
13 | CCCCCC1CCCc2c(n(Cc3cccc(C(N)=O)c3)c3c(C(=O)O)cccc23)C1 (stereo not drawn) [5-[(3-carbamoylphenyl)methyl]-7-pentyl-5H,6H,7H,8H,9H,10H-cyclohepta[b]indole-4-carboxylic acid] | 1.27
14 | CCCCCCCCC1CCCc2c(n(Cc3cccc(C(N)=O)c3)c3c(C(=O)O)cccc23)C1 (stereo not drawn) [5-[(3-carbamoylphenyl)methyl]-7-octyl-5H,6H,7H,8H,9H,10H-cyclohepta[b]indole-4-carboxylic acid] | 1.13
15 | CCCC1CCCc2c1c1cccc(C(=O)O)c1n2Cc1cccc(C(N)=O)c1 (stereo not drawn) [9-[(3-carbamoylphenyl)methyl]-4-propyl-2,3,4,9-tetrahydro-1H-carbazole-8-carboxylic acid] | 1.04
16 | CCC1CCc2c1n(Cc1cccc(C(N)=O)c1)c1c(C(=O)O)cccc21 (stereo not drawn) [4-[(3-carbamoylphenyl)methyl]-3-ethyl-1H,2H,3H,4H-cyclopenta[b]indole-5-carboxylic acid] | 1.02
17 | CCC1CCCc2c1n(Cc1cccc(C#N)c1)c1c(C(=O)O)cccc21 (stereo not drawn) [9-[(3-cyanophenyl)methyl]-1-ethyl-2,3,4,9-tetrahydro-1H-carbazole-8-carboxylic acid] | 1.11
18 | CCCCC1CCCc2c(n(Cc3cccc(C#N)c3)c3c(C(=O)NCCO)cccc23)C1 (stereo not drawn) [7-butyl-5-[(3-cyanophenyl)methyl]-N-(2-hydroxyethyl)-5H,6H,7H,8H,9H,10H-cyclohepta[b]indole-4-carboxamide] | 1.08

Row | Structure (SMILES) | fold induction at 10 µM
19 | CCCCCOC1CCCc2c1n(Cc1cccc(C#N)c1)c1c(C(=O)O)cccc21 (stereo not drawn) [9-[(3-cyanophenyl)methyl]-1-(pentyloxy)-2,3,4,9-tetrahydro-1H-carbazole-8-carboxylic acid] | 1.19
20 | CCCCCC1CCc2c(c3cccc(C(=O)O)c3n2Cc2cccc(C#N)c2)C1 (stereo not drawn) [9-[(3-cyanophenyl)methyl]-3-pentyl-2,3,4,9-tetrahydro-1H-carbazole-8-carboxylic acid] | 1.17
21 | CCCCCCC1CCCc2c(n(Cc3ccc(C(N)=O)cc3)c3c(C(=O)O)cccc23)C1 (stereo not drawn) [5-[(4-carbamoylphenyl)methyl]-7-hexyl-5H,6H,7H,8H,9H,10H-cyclohepta[b]indole-4-carboxylic acid] | 1.05
22 | CCCCC1CCCc2c(n(Cc3ccc(C(N)=O)cc3)c3c(C(=O)O)cccc23)C1 (stereo not drawn) [7-butyl-5-[(4-carbamoylphenyl)methyl]-5H,6H,7H,8H,9H,10H-cyclohepta[b]indole-4-carboxylic acid] | 1.13
23 | CCCCCCC1CCCc2c(n(Cc3cccc(C#N)c3)c3c(C(=O)O)cc(F)cc23)C1 (stereo not drawn) [5-[(3-cyanophenyl)methyl]-2-fluoro-7-hexyl-5H,6H,7H,8H,9H,10H-cyclohepta[b]indole-4-carboxylic acid] | 1.33
24 | CCCCC1CCc2c1n(Cc1cccc(C#N)c1)c1c(C(=O)O)cccc21 (stereo not drawn) [3-butyl-4-[(3-cyanophenyl)methyl]-1H,2H,3H,4H-cyclopenta[b]indole-5-carboxylic acid] | 1.21
25 | CCCCCCC1CCCc2c(n(Cc3csc(C#N)c3)c3c(C(=O)O)cccc23)C1 (stereo not drawn) [5-[(5-cyanothiophen-3-yl)methyl]-7-hexyl-5H,6H,7H,8H,9H,10H-cyclohepta[b]indole-4-carboxylic acid] | 1.2
26 | CCCCCCC1CCc2c(n(Cc3cccc(C(N)=O)c3)c3c(C(=O)O)cccc23)C1 (stereo not drawn) [9-[(3-carbamoylphenyl)methyl]-2-hexyl-2,3,4,9-tetrahydro-1H-carbazole-8-carboxylic acid] | 1.13
27 | CCCCC1CCCCc2c1n(Cc1cccc(C(N)=O)c1)c1c(C(=O)O)cccc21 (stereo not drawn) [6-butyl-5-[(3-carbamoylphenyl)methyl]-5H,6H,7H,8H,9H,10H-cyclohepta[b]indole-4-carboxylic acid] | 1.03
28 | CCCCC1CCCc2c(n(Cc3cccc(C(N)=O)c3)c3c(C(=O)NCC(=O)O)cccc23)C1 (stereo not drawn) [2-({7-butyl-5-[(3-carbamoylphenyl)methyl]-5H,6H,7H,8H,9H,10H-cyclohepta[b]indol-4-yl}formamido)acetic acid] | 0.9
29 | CCCCCC1CCc2c(n(Cc3cccc(C(N)=O)c3)c3c(C(=O)O)cccc23)C1 (stereo not drawn) [9-[(3-carbamoylphenyl)methyl]-2-pentyl-2,3,4,9-tetrahydro-1H-carbazole-8-carboxylic acid] | 1.13
30 | CCCCCCC1CCCc2c(n(Cc3c(C)noc3C)c3c(C(=O)O)cccc23)C1 (stereo not drawn) [5-[(3,5-dimethyl-1,2-oxazol-4-yl)methyl]-7-hexyl-5H,6H,7H,8H,9H,10H-cyclohepta[b]indole-4-carboxylic acid] | 0.95
31 | CCCCCCC1CCCc2c(n(Cc3ccc4ncoc4c3)c3c(C(=O)O)cccc23)C1 (stereo not drawn) [5-[(1,3-benzoxazol-6-yl)methyl]-7-hexyl-5H,6H,7H,8H,9H,10H-cyclohepta[b]indole-4-carboxylic acid] | 1.17
32 | CCCCCCC1CCc2c(n(Cc3ccccc3C)c3c(C(=O)O)cccc23)C1 (stereo not drawn) [2-hexyl-9-[(2-methylphenyl)methyl]-2,3,4,9-tetrahydro-1H-carbazole-8-carboxylic acid] | 1.23
33 | CCC1CCc2c(n(Cc3cccc(C(N)=O)c3)c3c(C(=O)O)cccc23)C1 (stereo not drawn) [9-[(3-carbamoylphenyl)methyl]-2-ethyl-2,3,4,9-tetrahydro-1H-carbazole-8-carboxylic acid] | 1.06
34 | CCCCCCC1CCc2c(n(Cc3ccnc(OC)c3)c3c(C(=O)O)cccc23)C1 (stereo not drawn) [2-hexyl-9-[(2-methoxypyridin-4-yl)methyl]-2,3,4,9-tetrahydro-1H-carbazole-8-carboxylic acid] | 1.19
35 | CCCCCCC1CCCc2c(n(Cc3ccc(C)cc3)c3c(C(=O)O)cccc23)C1 (stereo not drawn) [7-hexyl-5-[(4-methylphenyl)methyl]-5H,6H,7H,8H,9H,10H-cyclohepta[b]indole-4-carboxylic acid] | 1.05
36 | CCCCCCC1CCc2c(n(Cc3ccccc3C#N)c3c(C(=O)O)cccc23)C1 (stereo not drawn) [9-[(2-cyanophenyl)methyl]-2-hexyl-2,3,4,9-tetrahydro-1H-carbazole-8-carboxylic acid] | 1.13
